In PMC5829162, “Rational Design, Synthesis and Biological Evaluation of Pyrimidine-4,6-diamine derivatives as Type-II inhibitors of FLT3 Selective Against c-KIT” (Scientific Reports, 2018):
Where “and” joins values, the source holds several entries; their conditions need not be identical. Identical values can stand only once. Like-named read-outs stand apart in the source and are kept apart here.

Columns and labels:
[1] = target: CSF-1R (Homo sapiens, UniProt P07333); experiment: Biochemical kinase selectivity assay, CSF-1R
[2] = target: T1, RETV804L (Homo sapiens, UniProt P07949, V804L); experiment: Biochemical kinase selectivity assay, RET V804L
T1 sequence (P07949 658-1114 V804L limits assumed): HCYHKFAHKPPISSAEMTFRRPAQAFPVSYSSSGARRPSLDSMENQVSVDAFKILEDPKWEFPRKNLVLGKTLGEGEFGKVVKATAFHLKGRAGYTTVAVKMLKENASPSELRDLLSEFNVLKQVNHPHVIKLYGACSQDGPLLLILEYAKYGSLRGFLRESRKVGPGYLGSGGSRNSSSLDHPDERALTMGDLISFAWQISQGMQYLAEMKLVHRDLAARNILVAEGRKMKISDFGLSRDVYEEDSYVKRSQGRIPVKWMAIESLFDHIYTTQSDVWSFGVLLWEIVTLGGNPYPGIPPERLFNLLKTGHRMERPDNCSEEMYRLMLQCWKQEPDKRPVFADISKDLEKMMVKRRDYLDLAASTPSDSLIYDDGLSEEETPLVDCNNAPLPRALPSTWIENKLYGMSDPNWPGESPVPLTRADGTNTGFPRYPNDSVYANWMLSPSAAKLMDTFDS

[3] = target: T2, FLT3D835Y (Homo sapiens, UniProt P36888, D835Y); experiment: Biochemical kinase selectivity assay, FLT3 D835Y; conditions: in vitro kinase assay; read-out: FLT3D835Y IC50 (nM) ± SD
T2 construct: the biochemical assay only contains the kinase domain with a single, D835Y point mutation
T2 sequence (P36888 610-943 D835Y limits assumed): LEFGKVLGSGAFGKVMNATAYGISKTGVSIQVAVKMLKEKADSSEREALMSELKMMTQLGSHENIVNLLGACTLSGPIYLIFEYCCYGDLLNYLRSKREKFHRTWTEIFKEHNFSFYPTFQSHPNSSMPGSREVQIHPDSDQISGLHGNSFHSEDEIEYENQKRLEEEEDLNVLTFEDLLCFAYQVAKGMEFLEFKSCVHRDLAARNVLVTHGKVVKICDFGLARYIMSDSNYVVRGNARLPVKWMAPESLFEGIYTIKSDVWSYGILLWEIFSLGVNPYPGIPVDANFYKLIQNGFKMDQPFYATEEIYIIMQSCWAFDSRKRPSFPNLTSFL
Method: Kinase activity was measured in a microfluidics assay that monitors the separation of a phosphorylated product from substrate[31],[32]. The assay was run using a 12-sipper chip on a Caliper EZ Reader II (PerkinElmer®, Walthman, USA) with separation buffer (100 mM HEPES, 10 mM EDTA, 0.015% Brij-35, 0.1% CR-3 [PerkinElmer®, Walthman, USA]). In 96-well polypropylene plates (Greiner, Frickenhausen, Germany) compound stocks (20 mM in DMSO) were diluted into kinase buffer (50 mM HEPES, 0.075% Brij-35, 0.1% Tween 20, 2 mM DTT, 10 mM MgCl2, and 0.02% NaN3) in 12-point ½log dilutions (2 mM–6.32 nM). After, 1 μL was transferred into a 384-well polypropylene assay plate (Greiner, Frickenhausen, Germany). […] Percent inhibition was measured for each well comparing starting peptide to phosphorylated product peaks relative to the baseline. […] IC50 values were generated in duplicate and error was calculated from the standard deviation between values.
S10. Biochemical Inhibition Assay:1,2 Kinase activity was measured in a microfluidics assay that monitors the separation of a phosphorylated product from substrate. The assay was run using a 12-sipper chip on a Caliper EZ Reader II (PerkinElmer®, Walthman, USA) with separation buffer (100 mM HEPES, 10 mM EDTA, 0.015% Brij-35, 0.1% CR-3 [PerkinElmer®, Walthman, USA]). […]

[4] = target: Aurora B (Homo sapiens, UniProt Q96GD4); experiment: Biochemical kinase selectivity assay, Aurora B
Chain of Aurora B (Q96GD4 whole entry): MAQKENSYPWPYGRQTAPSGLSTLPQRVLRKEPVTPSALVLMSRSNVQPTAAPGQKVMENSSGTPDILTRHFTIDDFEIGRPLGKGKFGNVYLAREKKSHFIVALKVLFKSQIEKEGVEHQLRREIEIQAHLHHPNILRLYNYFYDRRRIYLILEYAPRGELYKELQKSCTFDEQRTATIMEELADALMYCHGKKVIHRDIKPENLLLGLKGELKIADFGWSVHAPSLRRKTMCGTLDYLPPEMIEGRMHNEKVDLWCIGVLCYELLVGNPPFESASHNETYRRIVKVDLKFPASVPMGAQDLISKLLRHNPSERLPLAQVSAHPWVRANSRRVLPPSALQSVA

Chain of CSF-1R (P07333 20-972, species assumed): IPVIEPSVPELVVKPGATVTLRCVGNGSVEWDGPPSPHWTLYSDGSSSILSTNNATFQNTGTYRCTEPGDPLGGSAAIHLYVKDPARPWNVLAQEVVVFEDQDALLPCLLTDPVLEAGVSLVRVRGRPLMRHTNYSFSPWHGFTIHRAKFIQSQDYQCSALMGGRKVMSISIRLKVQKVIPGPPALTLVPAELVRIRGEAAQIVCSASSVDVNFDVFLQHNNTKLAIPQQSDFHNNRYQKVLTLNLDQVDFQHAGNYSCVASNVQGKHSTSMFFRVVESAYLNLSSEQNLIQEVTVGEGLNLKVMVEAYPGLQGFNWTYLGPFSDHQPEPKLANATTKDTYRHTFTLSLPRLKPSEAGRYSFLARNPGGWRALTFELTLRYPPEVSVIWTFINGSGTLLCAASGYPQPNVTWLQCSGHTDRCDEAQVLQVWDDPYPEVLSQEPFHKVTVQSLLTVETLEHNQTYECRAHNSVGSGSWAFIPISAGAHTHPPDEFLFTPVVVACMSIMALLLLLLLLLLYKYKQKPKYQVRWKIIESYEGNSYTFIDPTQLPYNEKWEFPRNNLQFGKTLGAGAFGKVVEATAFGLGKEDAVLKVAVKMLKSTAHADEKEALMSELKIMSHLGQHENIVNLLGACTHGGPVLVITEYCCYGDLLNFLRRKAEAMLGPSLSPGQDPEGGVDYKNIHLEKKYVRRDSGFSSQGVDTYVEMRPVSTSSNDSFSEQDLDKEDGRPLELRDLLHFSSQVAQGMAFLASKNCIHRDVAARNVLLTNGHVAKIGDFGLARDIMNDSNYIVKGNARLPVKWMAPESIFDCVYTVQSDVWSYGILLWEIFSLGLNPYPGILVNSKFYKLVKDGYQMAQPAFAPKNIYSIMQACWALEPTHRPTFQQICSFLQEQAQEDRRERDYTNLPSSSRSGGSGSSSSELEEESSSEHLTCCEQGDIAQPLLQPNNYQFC

Row | Structure (SMILES) | IC50 ([1]; in vitro kinase assay, read-out: CSF-1R IC50 (nM) ± SD) | IC50 ([1]; read-out: CSF-1R IC50) | inhibition at 20 µM [2] | IC50 [3] | melting point | inhibition at 20 µM [4] | inhibition at 20 µM ([1]; at 20 µM)
1 | Cn1nc(C(C)(C)C)cc1NC(=O)Cc1ccc(Nc2cc(Nc3ccc(S(C)(=O)=O)cc3)ncn2)cc1 [13a, 2-(4-(6-(4-(Methylsulfonyl)phenylamino)pyrimidin-4-ylamino)phenyl)-N-(3-tert-butyl-1-methyl-1H-pyrazol-5-yl)acetamide] | 13000 nM | 13000 nM | 62.3% | 72.5 nM and 72 nM | 134 to 136 °C | 79.8% | –
2 | CC(C)(C)c1cc(NC(=O)Cc2ccc(Nc3cc(Nc4ccc(S(C)(=O)=O)cc4)ncn3)cc2)no1 [13k, 2-(4-(6-(4-(Methylsulfonyl)phenylamino)pyrimidin-4-ylamino)phenyl)-N-(5-tert-butylisoxazol-3-yl)acetamide] | – | – | 40.8% | 13700 ± 234 nM | 168 to 170 °C | 71.9% | 60.7%
